Target: T1, IRAK4 (Homo sapiens, UniProt Q9NWZ3)
T1 construct: endogenous in cells; host or cells: OCI-LY10
T1 sequence (Q9NWZ3 1-460): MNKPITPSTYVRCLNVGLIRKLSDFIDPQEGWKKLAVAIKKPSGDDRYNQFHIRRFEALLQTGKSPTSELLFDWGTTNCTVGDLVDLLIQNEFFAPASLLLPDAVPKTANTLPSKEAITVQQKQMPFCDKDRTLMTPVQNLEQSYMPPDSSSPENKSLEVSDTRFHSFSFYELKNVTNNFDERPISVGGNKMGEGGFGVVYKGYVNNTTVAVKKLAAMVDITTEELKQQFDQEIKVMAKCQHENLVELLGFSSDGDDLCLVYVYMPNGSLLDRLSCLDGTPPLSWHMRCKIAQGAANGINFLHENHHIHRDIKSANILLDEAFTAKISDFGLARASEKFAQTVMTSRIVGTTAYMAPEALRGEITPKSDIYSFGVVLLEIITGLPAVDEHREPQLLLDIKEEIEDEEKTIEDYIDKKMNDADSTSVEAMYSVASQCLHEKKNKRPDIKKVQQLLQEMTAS
Assay: IRAK4 MSD Degradation in OCI-LY10
Assay type: cell-based
Conditions: OCI-LY10 cells, Meso Scale Discovery, incubated 4 to 24 hours
Outline: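 OCI-LY10 cells (300,000/well) exposed to an 8-point 1:3 series from a top concentration of 1 to 10 μM for 4 to 24 h at 37 °C. IRAK4 remaining in RIPA lysates quantified by MSD sandwich immunoassay; DC50 from a three-parameter logistic fit.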

| DC50 | SMILES |
| --- | --- |
| < 10 nM | COc1cc2nn([C@H]3CC[C@H](CN(C)C4CCN(c5cccc6c5n(C)c(=O)n6C5CCC(=O)NC5=O)CC4)CC3)cc2cc1NC(=O)c1cncc(C(F)(F)F)c1 (stereo partly drawn) [I-92] |
| < 10 nM | COc1cc(NC(=O)c2cccc(C(F)(F)F)n2)cc2cn([C@H]3CC[C@H](CN4CCN(c5cccc6c(N7CCC(=O)NC7=O)cncc56)CC4)CC3)nc12 [I-222] |
| < 10 nM | Cn1c(=O)n(C2CCC(=O)NC2=O)c2cccc(N3CC4CC(C3)N4C[C@H]3CC[C@H](n4cc5cc(NC(=O)c6cccc(C(F)(F)F)n6)c(C(C)(C)O)cc5n4)CC3)c21 (stereo partly drawn) [I-232] |
| < 10 nM | COc1cc2nn([C@H]3CC[C@H](CN4C5CCC4CN(c4cccc6c4n(C)c(=O)n6C4CCC(=O)NC4=O)C5)CC3)cc2cc1NC(=O)c1cccc(C(F)(F)F)n1 (stereo partly drawn) [I-167] |
| < 10 nM | Cn1c(=O)n(C2CCC(=O)NC2=O)c2cccc(C3CCN(C[C@H]4CC[C@H](N5Cc6cc(NC(=O)c7cccc(C(F)(F)F)n7)c(N7C[C@@H]8C[C@H]7CO8)cc6C5=O)CC4)CC3)c21 (stereo partly drawn) [I-27] |
| < 10 nM | COc1cc2nn([C@H]3CC[C@H](CN4C5CCC4CN(c4cccc6c4n(C)c(=O)n6C4CCC(=O)NC4=O)C5)CC3)cc2cc1NC(=O)c1cncc(C#N)c1 (stereo partly drawn) [I-262] |
| < 10 nM | COc1cc2nc([C@H]3CC[C@H](CN4CCC(c5ccc6c(N7CCC(=O)NC7=O)cncc6c5)CC4)CC3)sc2cc1NC(=O)c1cccc(C(F)(F)F)n1 [I-125] |
| 50 to 100 nM | COc1cc2nc([C@H]3CC[C@H](CN4CC5(CC(CCNc6cccc7c6C(=O)N(C6CCC(=O)NC6=O)C7=O)C5)C4)CC3)n(C)c2cc1NC(=O)c1cccc(C(F)(F)F)n1 (stereo partly drawn) [I-3] |
| > 200 nM | COc1cncc(C(=O)Nc2cc3sc([C@H]4CC[C@H](CN(C)CCCCNc5cccc6c5C(=O)N(C5CCC(=O)NC5=O)C6=O)CC4)nc3cc2OC)c1 (stereo partly drawn) [I-449] |
| < 10 nM | COc1cc2nn([C@H]3CC[C@H](CN(C)C4CCN(c5cccc6c5n(C)c(=O)n6C5CCC(=O)NC5=O)CC4)CC3)cc2cc1NC(=O)c1cncc(C(F)(F)F)c1 (stereo partly drawn) [I-130] |
| < 10 nM | COc1cc2nn([C@H]3CC[C@H](CN4CCN(c5cccc6c5n(C)c(=O)n6C5CCC(=O)NC5=O)C[C@H]4C)CC3)cc2cc1NC(=O)c1cccc(C(F)(F)F)n1 (stereo partly drawn) [I-243] |
| < 10 nM | CC(C)Nc1c(C(=O)N[C@H]2CC[C@H](CN3CCC(c4cccc5c4n(C)c(=O)n5C4CCC(=O)NC4=O)CC3)CC2)cnc2c1Oc1cc(C#N)ccc1O2 (stereo partly drawn) [I-309] |
| > 200 nM | COc1cc2nc([C@H]3CC[C@H](CN(C)CCCCNc4cccc5c4C(=O)N(C4CCC(=O)NC4=O)C5=O)CC3)sc2cc1NC(=O)c1cncc(C#N)c1 (stereo partly drawn) [I-456] |
| 10 to 50 nM | COc1cc2nc([C@H]3CC[C@H](CN4CCN(c5cccc6c(N7CCC(=O)NC7=O)cncc56)CC4)CC3)sc2cc1NC(=O)c1cccc(C(F)(F)F)n1 [I-223] |
| 10 to 50 nM | COc1cc2nn([C@H]3CC[C@H](CN4C[C@H]5C[C@@H]4CN5c4cccc5c(N6CCC(=O)NC6=O)cncc45)CC3)cc2cc1NC(=O)c1cccc(C(F)(F)F)n1 [I-155] |
| < 10 nM | COc1cc2nn([C@H]3C[C@H](CN4CCC(c5cccc6c5n(C)c(=O)n6C5CCC(=O)NC5=O)CC4)C3)cc2cc1NC(=O)c1cccc(C(F)(F)F)n1 (stereo partly drawn) [I-33] |
| < 10 nM | Cn1c(=O)n(C2CCC(=O)NC2=O)c2cccc(N3CCN(C[C@H]4CC[C@H](n5cc6cc(NC(=O)c7cccc(C(F)(F)F)n7)c(S(C)(=O)=O)cc6n5)CC4)CC3)c21 (stereo partly drawn) [I-422] |
| < 10 nM | COc1cc2nn([C@H]3CC[C@H](CN4CCC(c5cc(F)cc6c5n(C)c(=O)n6C5CCC(=O)NC5=O)CC4)CC3)cc2cc1NC(=O)c1cccc(C(F)(F)F)n1 (stereo partly drawn) [I-52] |
| 10 to 50 nM | O=C1CCN(c2cncc3cc(N4CCN(C[C@H]5CC[C@H](n6cc7cc(NC(=O)c8cccc(C(F)(F)F)n8)c(C(F)F)cc7n6)CC5)CC4)ccc23)C(=O)N1 [I-375] |
| > 200 nM | CC(C)(O)c1cc2nc([C@H]3CC[C@H](CN4CCO[C@H](CCCNc5cccc6c5C(=O)N(C5CCC(=O)NC5=O)C6=O)C4)CC3)sc2cc1NC(=O)c1cncc(C#N)c1 (stereo partly drawn) [I-455] |
| < 10 nM | Cn1c(=O)n(C2CCC(=O)NC2=O)c2cccc(N3CCN(C[C@H]4CC[C@H](n5cc6cc(NC(=O)c7cccc(C(F)(F)F)n7)c(N7C[C@H]8C[C@@H]7CO8)cc6n5)CC4)CC3)c21 (stereo partly drawn) [I-384] |
| > 200 nM | Cn1c(=O)n(C2CCC(=O)NC2=O)c2cccc(C3CCN(C[C@H]4CC[C@H](n5cc6cc(NC(=O)c7cncc(C#N)c7)c(N7C[C@H]8C[C@@H]7CO8)cc6n5)CC4)CC3)c21 (stereo partly drawn) [I-212] |
| 10 to 50 nM | COc1cc2nn([C@H]3CC[C@H](CN(C)C4CCN(c5cccc6c5n(C)c(=O)n6C5CCC(=O)NC5=O)CC4)CC3)cc2cc1NC(=O)c1ccc(C(F)(F)F)cn1 (stereo partly drawn) [I-16] |

| DC50 | SMILES |
| --- | --- |
| 10 to 50 nM | Cc1cc2nn([C@H]3CC[C@H](CN4CCC(c5cccc6c5n(C)c(=O)n6[C@H]5CCC(=O)NC5=O)CC4)CC3)cc2cc1NC(=O)c1cccc(C(F)(F)F)n1 (single isomer, unassigned) [I-390] |
| 50 to 100 nM | Cn1c(=O)n(C2CCC(=O)NC2=O)c2cccc(N3CC4CC(C3)N4C[C@H]3CC[C@H](n4cc5cc(NC(=O)c6cccc(C(F)(F)F)n6)ccc5n4)CC3)c21 (single isomer, unassigned) [I-157, N-[2-[4-[[3-[1-(2,6-dioxo-3-piperidyl)-3-methyl-2-oxo-benzimidazol-4-yl]-3,6-diazabicyclo[3.1.1]heptan-6-yl]methyl]cyclohexyl]indazol-5-yl]-6-(trifluoromethyl)pyridine-2-carboxamide] |
| 100 to 200 nM | Cn1c(=O)n(C2CCC(=O)NC2=O)c2cccc(C3CCN(C[C@H]4C[C@H](n5cc6cc(NC(=O)c7cccc(C(F)(F)F)n7)ccc6n5)C4)CC3)c21 (stereo partly drawn) [I-140] |
| 10 to 50 nM | COc1ccc2c(c1N1CCN(C[C@H]3CC[C@H](n4cc(-c5cnc(-n6ccc7cc(C#N)cnc76)cc5NC(C)C)nn4)CC3)CC1)n(C)c(=O)n2C1CCC(=O)NC1=O (stereo partly drawn) [I-295] |
| > 200 nM | CN(CCCO[C@H]1C[C@H](Nc2cccc3c2C(=O)N(C2CCC(=O)NC2=O)C3=O)C1)C[C@H]1CC[C@H](n2cc3cc(NC(=O)c4cccc(C(F)(F)F)n4)ncc3n2)CC1 (stereo partly drawn) [I-353] |
| < 10 nM | COc1cc2nn([C@H]3CC[C@H](CN4CCN(c5cccc6c(N7CCC(=O)NC7=O)cncc56)[C@@H](C)C4)CC3)cc2cc1NC(=O)c1cccc(C(F)(F)F)n1 [I-233] |
| 10 to 50 nM | CC(C)Nc1cc(-n2ccc3cc(C#N)cnc32)ncc1-c1cn([C@H]2CC[C@H](CN3CCN(c4cccc5c4n(C)c(=O)n5C4CCC(=O)NC4=O)CC3)CC2)nn1 (stereo partly drawn) [I-231] |
| > 200 nM | COc1cc2nn([C@H]3CC[C@H](CN(C)C4CCN(c5cccc6c5n(C)c(=O)n6C5CCC(=O)NC5=O)CC4)CC3)cc2cc1-n1cc(-c2cccc(C(F)(F)F)n2)nn1 (stereo partly drawn) [I-100] |
| < 10 nM | CC(C)Nc1c(C(=O)N[C@H]2CC[C@H](CN3CCN(c4cccc5c4n(C)c(=O)n5C4CCC(=O)NC4=O)CC3)CC2)cnc2sc(-c3cncs3)cc12 (stereo partly drawn) [I-416] |
| < 10 nM | COc1cc2nn([C@H]3CC[C@H](CN4CCN(c5cccc6c5n(C)c(=O)n6C5CCC(=O)NC5=O)CC4)CC3)cc2cc1NC(=O)c1ccnc(C(F)(F)F)n1 (stereo partly drawn) [I-298] |
| < 10 nM | Cc1ccc2c(c1C1CCN(C[C@H]3CC[C@H](n4cc5cc(NC(=O)c6cccc(C(F)(F)F)n6)ccc5n4)CC3)CC1)n(C)c(=O)n2C1CCC(=O)NC1=O (stereo partly drawn) [I-99] |
| 10 to 50 nM | COc1cc2nn([C@H]3CC[C@H](CN(C)C4CCN(c5cccc6c5n(C)c(=O)n6C5CCC(=O)NC5=O)CC4)CC3)cc2cc1NC(=O)c1cc(F)cc(C(F)(F)F)c1 (stereo partly drawn) [I-131] |
| 10 to 50 nM | CC(C)Nc1c(C(=O)N[C@H]2CC[C@H](CN3CCN(c4cccc5c(N6CCC(=O)NC6=O)cncc45)CC3)CC2)cnc2sc(-c3cncs3)cc12 [I-418] |
| 10 to 50 nM | Cn1c(=O)n(C2CCC(=O)NC2=O)c2cccc(C3C[C@H]4CC[C@@H](C3)N4C[C@H]3CC[C@H](n4cc5cc(NC(=O)c6cccc(C(F)(F)F)n6)ccc5n4)CC3)c21 (single isomer, unassigned) [I-250] |
| 50 to 100 nM | CC(C)(O)c1cc2nc([C@H]3CC[C@H](CN4CCO[C@H](CCCNc5cccc6c5C(=O)N(C5CCC(=O)NC5=O)C6=O)C4)CC3)sc2cc1NC(=O)c1cccc(C#N)n1 (stereo partly drawn) [I-442] |
| > 200 nM | COc1cc2nc([C@H]3CC[C@H](CN(C)CCCNc4cccc5c4C(=O)N(C4CCC(=O)NC4=O)C5=O)CC3)sc2cc1NC(=O)c1cncc(C#N)c1 (stereo partly drawn) [I-458] |
| > 200 nM | Cn1c(=O)n(C2CCC(=O)NC2=O)c2cccc(N3CCN(C[C@H]4CC[C@H](n5cc6cc(NC(=O)c7cncc(C#N)c7)c(OC(F)(F)F)cc6n5)CC4)CC3)c21 (stereo partly drawn) [I-160] |
| 10 to 50 nM | COc1ccc2c(c1C1CCN(C[C@H]3CC[C@H](n4cc5cc(NC(=O)c6cccc(C(F)(F)F)n6)ccc5n4)CC3)CC1)n(C)c(=O)n2C1CCC(=O)NC1=O (stereo partly drawn) [I-75] |
| 10 to 50 nM | COc1cc2nn([C@H]3CC[C@H](CN4CCCN(c5cccc6c5n(C)c(=O)n6C5CCC(=O)NC5=O)CC4)CC3)cc2cc1NC(=O)c1cncc(C#N)c1 (stereo partly drawn) [I-367] |
| < 10 nM | COc1cc2nc([C@H]3CC[C@H](CN4CCC(c5cccc6c5n(C)c(=O)n6C5CCC(=O)NC5=O)CC4)CC3)sc2cc1NC(=O)c1cncc(Cl)c1 (stereo partly drawn) [I-182] |
| 10 to 50 nM | CC(C)Nc1cc(-n2ccc3cc(C#N)cnc32)ncc1C(=O)N[C@H]1CC[C@H](CN2CCC(c3ccc4c(N5CCC(=O)NC5=O)cncc4c3)CC2)CC1 [I-127] |
| 10 to 50 nM | Cn1c(=O)n(C2CCC(=O)NC2=O)c2cccc(C3CCN(C[C@H]4CC[C@H](n5cc6cc(NC(=O)c7cccc(C(F)(F)F)n7)c(Cl)cc6n5)CC4)CC3)c21 (stereo partly drawn) [I-24] |
